Test results: article PMC10796436, “Peptidyl nitroalkene inhibitors of main protease rationalized by computational and crystallographic investigations as antivirals against SARS-CoV-2” (Communications Chemistry, 2024)
“And” between values parts separate entries of the source, which are not always exact repeats. Identical values can stand only once.

Assays:
SARS-CoV-2 M^pro [1] = molecular target: T1, SARS-CoV-2 M^pro (Severe acute respiratory syndrome coronavirus 2, UniProt P0DTD1); test: biochemical; conditions: M^pro from pMal-M^pro vector
M^pro [2] = molecular target: T2, M^pro (Severe acute respiratory syndrome coronavirus 2, UniProt P0DTD1); test: Binding to M^pro by ITC; design: DP / DH: unit not given here
[3] = molecular target: human matriptase (MT-SP1) (Homo sapiens, UniProt Q9Y5Y6); test: Matriptase inhibition, fluorometric assay; format: biochemical; conditions: 20 μM
Sequence of human matriptase (MT-SP1) (Q9Y5Y6 615-855 limits assumed, other chains not shown): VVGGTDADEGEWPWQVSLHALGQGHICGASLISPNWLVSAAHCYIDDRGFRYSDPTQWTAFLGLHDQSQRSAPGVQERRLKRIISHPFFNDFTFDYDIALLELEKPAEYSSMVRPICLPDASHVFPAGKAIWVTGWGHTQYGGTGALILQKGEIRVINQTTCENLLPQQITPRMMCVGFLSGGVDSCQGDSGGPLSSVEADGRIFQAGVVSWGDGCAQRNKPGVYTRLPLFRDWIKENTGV

cathepsin L (CatL) = molecular target: T3, cathepsin L (CatL) (Homo sapiens, UniProt P07711); test: Cathepsin L inhibition, fluorometric assay; format: biochemical
T3 construct: purchased Calbiochem (Merck Millipore)
T3 sequence (P07711 114-288 limits assumed): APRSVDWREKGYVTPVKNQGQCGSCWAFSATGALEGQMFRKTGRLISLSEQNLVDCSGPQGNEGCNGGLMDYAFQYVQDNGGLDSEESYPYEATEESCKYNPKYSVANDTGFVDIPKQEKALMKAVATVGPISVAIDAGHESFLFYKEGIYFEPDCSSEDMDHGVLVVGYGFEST
T3 sequence (P07711 292-333 limits assumed): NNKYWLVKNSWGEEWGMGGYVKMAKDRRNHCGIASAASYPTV

SARS-CoV-2 = test: microbe, parasite or virus in culture; format: cell-based; conditions: for virus titer Mean (%): mean of Exp.1-3; for virus titer (%) of conc 0 / virus titer (pfu/ml): single experiments
[4] = molecular target: Zika Virus NS2B/NS3 (bZiPro) (Zika virus, UniProt A0A024B7W1); test: Zika virus protease inhibition, fluorometric assay; format: biochemical; conditions: 20 μM
Sequence of Zika Virus NS2B/NS3 (bZiPro) (A0A024B7W1 1425-1464): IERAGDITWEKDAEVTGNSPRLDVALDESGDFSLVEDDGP
Sequence of Zika Virus NS2B/NS3 (bZiPro) (A0A024B7W1 1503-1680): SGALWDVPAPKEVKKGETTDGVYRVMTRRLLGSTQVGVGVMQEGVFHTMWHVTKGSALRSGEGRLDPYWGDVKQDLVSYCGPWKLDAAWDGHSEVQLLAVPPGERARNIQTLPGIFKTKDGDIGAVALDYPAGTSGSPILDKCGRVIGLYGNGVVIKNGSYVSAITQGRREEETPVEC

M^pro [5] = molecular target: T2, M^pro; test: biochemical; format: binding
SARS-CoV-2 M^pro [6] = molecular target: T1, SARS-CoV-2 M^pro; test: Mpro FRET inhibition, continuous fluorometric assay (Fluorolog-3), enzyme from pET21-M^pro vector; format: biochemical; conditions: read-out: Ki (μM)^b

SMILES: CC(C)C[C@H](NC(=O)OCc1ccccc1)C(=O)N[C@H](/C=C/[N+](=O)[O-])C[C@@H]1CCNC1=O [FGA147]
- Ki (SARS-CoV-2 M^pro [1]): 2.18 ± 0.19 µM
- Kd (M^pro [2]; ITC, 25 °C): 2860 ± 250 nM
- DH (M^pro [2]; Molar ratio 0.39455): -0.9026
- DH (M^pro [2]; Molar ratio 0.72682): -0.8799
- DH (M^pro [2]; Molar ratio 1.06223): -0.8369
- DP (M^pro [2]; Time 0.08333 min): -0.00244
- DP (M^pro [2]; Time 0.10000 min): -0.00119
- DP (M^pro [2]; Time 0.11667 min): -0.00067
- MT-SP1 [3]: n.i. (no inhibition (<10%) was observed at a concentration of 20 μM)
- Ki (cathepsin L (CatL)): 1990 ± 107 nM
- EC50 (SARS-CoV-2; Severe acute respiratory syndrome coronavirus 2, 24 h, Huh-7-ACE2, 24h p.t., MOI=0.1): 1900 nM
- virus titer Mean (%) (SARS-CoV-2; conc 0.1): 153.333%
- virus titer (%) of conc 0 (SARS-CoV-2; conc 0.1): 160% and 180% and 120%
- virus titer (pfu/ml) (SARS-CoV-2; conc 0.1): 1600000 pfu/ml and 1800000 pfu/ml and 2400000 pfu/ml
- virus titer Mean (%) (SARS-CoV-2; conc 0.5): 83.3333%
- virus titer (pfu/ml) (SARS-CoV-2; conc 0.5): 1000000 pfu/ml and 1200000 pfu/ml and 600000 pfu/ml
- virus titer Mean (%) (SARS-CoV-2; conc 1): 85%
- virus titer Mean (%) (SARS-CoV-2; conc 5): 0.5017%
- virus titer (%) of conc 0 (SARS-CoV-2; conc 5): 1% and 0.365% and 0.14%
- virus titer Mean (%) (SARS-CoV-2; conc 10): 0.08%
- virus titer (%) of conc 0 (SARS-CoV-2; conc 10): 0.04% and 0.15% and 0.05%
- virus titer Mean (%) (SARS-CoV-2; conc 50): 0.025%
- virus titer (%) of conc 0 (SARS-CoV-2; conc 50): 0.06% and 0.012% and 0.003%
- virus titer Mean (%) (SARS-CoV-2; conc 100): 0.01767%
- virus titer (%) of conc 0 (SARS-CoV-2; conc 100): 0.02% and 0.026% and 0.007%
- virus titer (pfu/ml) (SARS-CoV-2; conc 100): 200 pfu/ml and 260 pfu/ml and 140 pfu/ml
- bZiPro [4]: n.i. (no inhibition (<10%) was observed at a concentration of 20 μM)
- Tm of M^pro (M^pro [5]; 25 µM): 46.2 ± 0.1 °C
- change of Tm of M^pro (M^pro [5]; 25 µM): −3.0 ± 0.1 °C
- ΔTm at 25 µM (M^pro [5]; 25 µM, read-out: DTm (°C)): -3 °C
- Tm of M^pro (M^pro [5]; 100 μM): 45.0 ± 0.2 °C
- change of Tm of M^pro (M^pro [5]; 100 μM): −4.2 ± 0.2 °C
- Fraction unfolded (M^pro [5]; 25 mM, 21.5 °C): 0.04278
- Fraction unfolded (M^pro [5]; 25 mM, 22 °C): 0.07148
- Fraction unfolded (M^pro [5]; 25 mM, 22.5 °C): 0.01751
- Fraction unfolded (M^pro [5]; 25 mM, 23 °C): -0.05389
- Fraction unfolded (M^pro [5]; 25 mM, 23.5 °C): -0.01968
- Fraction unfolded (M^pro [5]; 25 mM, 24 °C): 0.09885
- Fraction unfolded (M^pro [5]; 25 mM, 24.5 °C): 0.01751
- Fraction unfolded (M^pro [5]; 25 mM, 25 °C): 0.01414
- Fraction unfolded (M^pro [5]; 25 mM, 25.5 °C): -0.01034
- Fraction unfolded (M^pro [5]; 25 mM, 26 °C): 0.01683
- Fraction unfolded (M^pro [5]; 25 mM, 26.5 °C): 0.04278
- Fraction unfolded (M^pro [5]; 25 mM, 27 °C): 0.07148
- Fraction unfolded (M^pro [5]; 25 mM, 27.5 °C): -0.01421
- Fraction unfolded (M^pro [5]; 25 mM, 28 °C): -0.05389
- Fraction unfolded (M^pro [5]; 25 mM, 28.5 °C): -0.01968
- Fraction unfolded (M^pro [5]; 25 mM, 29 °C): 0.09885
- Fraction unfolded (M^pro [5]; 25 mM, 29.5 °C): 0.01751
- Fraction unfolded (M^pro [5]; 25 mM, 30 °C): -0.01678
- Fraction unfolded (M^pro [5]; 25 mM, 30.5 °C): 0.01948
- Fraction unfolded (M^pro [5]; 25 mM, 31 °C): 0.07312
- Fraction unfolded (M^pro [5]; 25 mM, 31.5 °C): 0.01304
- Fraction unfolded (M^pro [5]; 25 mM, 32 °C): 0.01813
- Fraction unfolded (M^pro [5]; 25 mM, 66.5 °C): 1.064
- Fraction unfolded (M^pro [5]; 25 mM, 67 °C): 1.093
- Fraction unfolded (M^pro [5]; 25 mM, 67.5 °C): 1.004
- Fraction unfolded (M^pro [5]; 25 mM, 68 °C): 1.064
- Fraction unfolded (M^pro [5]; 25 mM, 68.5 °C): 0.9281
- Fraction unfolded (M^pro [5]; 25 mM, 69 °C): 1.033
- Fraction unfolded (M^pro [5]; 25 mM, 69.5 °C): 0.9909
- Fraction unfolded (M^pro [5]; 25 mM, 70 °C): 0.9575
- Fraction unfolded (M^pro [5]; 25 mM, 70.5 °C): 1.011
- Fraction unfolded (M^pro [5]; 25 mM, 71 °C): 1.05
- Fraction unfolded (M^pro [5]; 25 mM, 71.5 °C): 1.061
- Fraction unfolded (M^pro [5]; 25 mM, 72 °C): 0.9314
- Fraction unfolded (M^pro [5]; 25 mM, 72.5 °C): 1.024
- Fraction unfolded (M^pro [5]; 25 mM, 73 °C): 1.027
- Fraction unfolded (M^pro [5]; 25 mM, 73.5 °C): 1.08
- Fraction unfolded (M^pro [5]; 25 mM, 74 °C): 1
- Fraction unfolded (M^pro [5]; 25 mM, 74.5 °C): 0.9793
- Fraction unfolded (M^pro [5]; 25 mM, 75 °C): 0.8934
- Fraction unfolded (M^pro [5]; 25 mM, 75.5 °C): 0.9799
- Fraction unfolded (M^pro [5]; 25 mM, 76 °C): 1.027
- Fraction unfolded (M^pro [5]; 25 mM, 76.5 °C): 0.9678
- Fraction unfolded (M^pro [5]; 25 mM, 77 °C): 0.9735
- Fraction unfolded (M^pro [5]; 25 mM, 77.5 °C): 0.9321
- Fraction unfolded (M^pro [5]; 25 mM, 78 °C): 1.0047
- Fraction unfolded (M^pro [5]; 25 mM, 78.5 °C): 1.022
- Fraction unfolded (M^pro [5]; 25 mM, 79 °C): 0.9456
- Fraction unfolded (M^pro [5]; 25 mM, 79.5 °C): 1.012
- Fraction unfolded (M^pro [5]; 25 mM, 80 °C): 0.9456
- Fraction unfolded (M^pro [5]; 100 mM, 21.5 °C): -0.02084
- Fraction unfolded (M^pro [5]; 100 mM, 22 °C): -0.00506
- Fraction unfolded (M^pro [5]; 100 mM, 22.5 °C): 0.01094
- Fraction unfolded (M^pro [5]; 100 mM, 23 °C): 0.02167
- Fraction unfolded (M^pro [5]; 100 mM, 23.5 °C): -0.03337
- Fraction unfolded (M^pro [5]; 100 mM, 24 °C): -0.04925
- Fraction unfolded (M^pro [5]; 100 mM, 24.5 °C): -0.01302
- Fraction unfolded (M^pro [5]; 100 mM, 25 °C): 0.0174
- Fraction unfolded (M^pro [5]; 100 mM, 25.5 °C): 0.07455
- Fraction unfolded (M^pro [5]; 100 mM, 26 °C): -0.07318
- Fraction unfolded (M^pro [5]; 100 mM, 26.5 °C): 0.02179
- Fraction unfolded (M^pro [5]; 100 mM, 27 °C): -0.00134
- Fraction unfolded (M^pro [5]; 100 mM, 27.5 °C): 0.02966
- Fraction unfolded (M^pro [5]; 100 mM, 28 °C): -0.07997
- Fraction unfolded (M^pro [5]; 100 mM, 28.5 °C): -0.01931
- Fraction unfolded (M^pro [5]; 100 mM, 29 °C): 0.05111
- Fraction unfolded (M^pro [5]; 100 mM, 29.5 °C): 0.02685
- Fraction unfolded (M^pro [5]; 100 mM, 30 °C): 0.06732
- Fraction unfolded (M^pro [5]; 100 mM, 30.5 °C): -0.02735
- Fraction unfolded (M^pro [5]; 100 mM, 31 °C): 0.01656
- Fraction unfolded (M^pro [5]; 100 mM, 31.5 °C): -0.02084
- Fraction unfolded (M^pro [5]; 100 mM, 32 °C): -0.00506
- Fraction unfolded (M^pro [5]; 100 mM, 66.5 °C): 1.07
- Fraction unfolded (M^pro [5]; 100 mM, 67 °C): 1.013
- Fraction unfolded (M^pro [5]; 100 mM, 67.5 °C): 0.9992
- Fraction unfolded (M^pro [5]; 100 mM, 68 °C): 1.02
- Fraction unfolded (M^pro [5]; 100 mM, 68.5 °C): 1.071
- Fraction unfolded (M^pro [5]; 100 mM, 69 °C): 0.9861
- Fraction unfolded (M^pro [5]; 100 mM, 69.5 °C): 1.008
- Fraction unfolded (M^pro [5]; 100 mM, 70 °C): 1.064
- Fraction unfolded (M^pro [5]; 100 mM, 70.5 °C): 0.8899
- Fraction unfolded (M^pro [5]; 100 mM, 71 °C): 1.057
- Fraction unfolded (M^pro [5]; 100 mM, 71.5 °C): 1.048
- Fraction unfolded (M^pro [5]; 100 mM, 72 °C): 1.1085
- Fraction unfolded (M^pro [5]; 100 mM, 72.5 °C): 1.099
- Fraction unfolded (M^pro [5]; 100 mM, 73 °C): 0.9672
- Fraction unfolded (M^pro [5]; 100 mM, 73.5 °C): 1.047
- Fraction unfolded (M^pro [5]; 100 mM, 74 °C): 0.9312
- Fraction unfolded (M^pro [5]; 100 mM, 74.5 °C): 1.062
- Fraction unfolded (M^pro [5]; 100 mM, 75 °C): 1.063
- Fraction unfolded (M^pro [5]; 100 mM, 75.5 °C): 1.018
- Fraction unfolded (M^pro [5]; 100 mM, 76 °C): 0.9202
- Fraction unfolded (M^pro [5]; 100 mM, 76.5 °C): 1.013
- Fraction unfolded (M^pro [5]; 100 mM, 77 °C): 0.9957
- Fraction unfolded (M^pro [5]; 100 mM, 77.5 °C): 1.0714
- Fraction unfolded (M^pro [5]; 100 mM, 78 °C): 0.8845
- Fraction unfolded (M^pro [5]; 100 mM, 78.5 °C): 0.9237
- Fraction unfolded (M^pro [5]; 100 mM, 79 °C): 1.0367
- Fraction unfolded (M^pro [5]; 100 mM, 79.5 °C): 0.9498
- Fraction unfolded (M^pro [5]; 100 mM, 80 °C): 0.9799
- Ki (SARS-CoV-2 M^pro [6]): 1.33 ± 0.05 µM
